We go through 1 cell line from the supplement of paper PMC10307832.

What all share (assay): relative viability (nuclei count vs DMSO), 5 days (fraction); higher = more cells survive
Compound in experiment [1]: CS(=O)(=O)N1CCN(Cc2cc3nc(-c4cccc5[nH]ncc45)nc(N4CCOCC4)c3s2)CC1 [Pictilisib] + O=C(CCCCCCC(=O)Nc1ccccc1)NO [Vorinostat] (partner 1 µM)
The essentials: (§1)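 Lung cancer cell lines, seeded in 1536-well plates, were treated the following day by pin tool with a single drug or with five library-drug doses (not always all listed) in √10 steps on top of a fixed anchor-drug dose. Cells were fixed and nuclei stained in one step after 5 days, and nuclei were counted. Relative viability is the nuclei count for treated wells divided by that for vehicle wells, reported as medians of duplicate plates.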

Compound in experiment [2]: CS(=O)(=O)N1CCN(Cc2cc3nc(-c4cccc5[nH]ncc45)nc(N4CCOCC4)c3s2)CC1 [Pictilisib] + Cc1nc(NC(=O)N2CCC[C@H]2C(N)=O)sc1-c1ccnc(C(C)(C)C(F)(F)F)c1 [Alpelisib] (partner 2 µM)
The essentials: as §1

Compound in experiment [3]: CS(=O)(=O)N1CCN(Cc2cc3nc(-c4cccc5[nH]ncc45)nc(N4CCOCC4)c3s2)CC1 [Pictilisib] + CC(=O)c1c(C)c2cnc(Nc3ccc(N4CCNCC4)cn3)nc2n(C2CCCC2)c1=O [Palbociclib] (partner 0.5 µM)
The essentials: as §1

Compound in experiment [4]: CS(=O)(=O)N1CCN(Cc2cc3nc(-c4cccc5[nH]ncc45)nc(N4CCOCC4)c3s2)CC1 [Pictilisib] + Nc1nc2[nH]cc(CCc3ccc(C(=O)N[C@@H](CCC(=O)O)C(=O)O)cc3)c2c(=O)[nH]1 [Pemetrexed] (partner 0.2 µM)
The method, boiled down: as §1

Compound in experiment [5]: CS(=O)(=O)N1CCN(Cc2cc3nc(-c4cccc5[nH]ncc45)nc(N4CCOCC4)c3s2)CC1 [Pictilisib] + CC1(C)CCC(c2ccc(Cl)cc2)=C(CN2CCN(c3ccc(C(=O)NS(=O)(=O)c4ccc(N[C@H](CCN5CCOCC5)CSc5ccccc5)c(S(=O)(=O)C(F)(F)F)c4)cc3)CC2)C1 [Navitoclax] (partner 0.5 µM)
The essentials: as §1

Take UMC-11: the relative viability in experiment [1] (first compound 0.02 µM) is 0.366; in experiment [1] (first compound 0.06325 µM), 0.414; in experiment [1] (first compound 0.6325 µM), 0.464; in experiment [1] (first compound 2 µM) it was 0.354; in experiment [2] (first compound 0.02 µM) it was 0.942; in experiment [2] (first compound 0.06325 µM), 1.05. The relative viability in experiment [2] (first compound 0.6325 µM) amounted to 1.14; in experiment [2] (first compound 2 µM) it was 1.17; in experiment [3] (first compound 0.02 µM) it was 0.334; in experiment [3] (first compound 0.06325 µM) it was 0.318; in experiment [3] (first compound 0.6325 µM), 0.427; in experiment [3] (first compound 2 µM), 0.376. The relative viability in experiment [4] (first compound 0.02 µM) was determined as 0.784; in experiment [4] (first compound 0.06325 µM) it was 0.787; in experiment [4] (first compound 0.6325 µM), 0.737; in experiment [4] (first compound 2 µM) it was 0.535; in experiment [5] (first compound 0.02 µM) it was 0.343; in experiment [5] (first compound 0.06325 µM), 0.281. For the same cell line, the relative viability stood at 0.349 in experiment [5] (first compound 0.6325 µM) and 0.281 in experiment [5] (first compound 2 µM).
